Common to all, as to type: binding
One test has as its target S100A4 (Homo sapiens, UniProt P26447). Briefly: direct fluorescence polarization (FP), S100A4. Conditions: S100A4, 50 nM labeled foldamer, 20 mM HEPES pH 7.5, 150 mM NaCl, 1 mM CaCl2, 0.5 mM TCEP, 0.01% Tween20, quadratic fit, mean ± SEM, three technical repeats, threshold 1 mM. From the text: HTP (and also low-throughput) measurements generally need to be validated by an orthogonal approach to eliminate experimental artifacts. […] In this assay, the association of the fluorescently labeled foldamer and the S100 protein of interest is monitored, through the change in polarization of the emitted light by the fluorophore upon the binding event. In direct FP, the presence of the fluorophore might change the binding affinity of some foldamers. […] Nevertheless, we assumed that the fluorophore would affect all foldamers that target the same binding site to the same degree, because the foldamer scaffold is rigid.
(§1) Briefly, S100 proteins were cloned into a modified pET15b vector with a TEV protease cleavable N-terminal His6-tag and expressed in Escherichia coli BL21 (DE3) cells, followed by Ni^2+-affinity chromatography. For HU assay, S100 proteins were further purified by either hydrophobic interaction chromatography or ion exchange chromatography without the cleavage of the N-terminal His6-tag applying standard conditions. For direct FP measurements, the N-terminal His6-tag was cleaved, and the S100 proteins were purified by hydrophobic interaction chromatography, ion exchange chromatography or size exclusion chromatography. The quality of the recombinant proteins was checked by SDS-PAGE analysis in all cases. The concentration of the recombinant S100 proteins was determined by UV spectrophotometry using the absorbance of Tyr and Trp residues.
(§2) In direct fluorescence polarization assays, S100 proteins were diluted in a buffer containing 50 nM labeled foldamer, 20 mM HEPES pH 7.5, 150 mM NaCl, 1 mM CaCl2, 0.5 mM TCEP and 0.01% Tween20. The dilution series (50 µl) were divided into three technical repeats and transferred (15 µl) to a 384-well microplate. In competitive fluorescence polarization assays, the buffer applied in direct measurements was supplemented with the S100 protein of interest to reach a saturation of 60–80%. This mixture was titrated with the competitor (i.e. the unlabeled peptide). Fluorescence polarization was measured in 8 different S100 concentrations (one of which contained no S100 protein) on a Synergy H4 plate reader using 485 ± 20 nm and 528 ± 20 nm band-pass filters for excitation and emission, respectively. The Kd values were obtained by fitting the data from the FP measurements with the python-based ProFit software using quadratic and competitive binding equation for direct and competitive FP, respectively. The detection threshold was based on two parameters. First, we rejected all fitted dissociation constants above 1 mM.
(In general: In fluorescence polarisation assays a small probe gives low polarisation when free and higher when bound to something large.)

The next test concerns the target T1, S100A12 (Homo sapiens, UniProt P80511).
T1 sequence (P80511 1-92): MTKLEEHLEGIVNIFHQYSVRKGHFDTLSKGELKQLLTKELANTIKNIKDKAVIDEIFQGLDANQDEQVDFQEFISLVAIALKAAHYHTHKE
Put plainly: direct fluorescence polarization (FP), S100A12. To be noted: S100A12, 50 nM labeled foldamer, 20 mM HEPES pH 7.5, 150 mM NaCl, 1 mM CaCl2, 0.5 mM TCEP, 0.01% Tween20, quadratic fit, mean ± SEM, three technical repeats, threshold 1 mM. The method, then: (§3) HTP (and also low-throughput) measurements generally need to be validated by an orthogonal approach to eliminate experimental artifacts. […] This way, we chose WL, IF, WW, YF, IL, VL, TW, RF, RR, TI, TM, and after resynthesizing with a fluorescent label at the C-terminus (Figs. S15–S26, Table S1), the S100ome was tested against the labeled foldamers by direct fluorescence polarization (FP) (Fig. 3A). In this assay, the association of the fluorescently labeled foldamer and the S100 protein of interest is monitored, through the change in polarization of the emitted light by the fluorophore upon the binding event. In direct FP, the presence of the fluorophore might change the binding affinity of some foldamers. […] Nevertheless, we assumed that the fluorophore would affect all foldamers that target the same binding site to the same degree, because the foldamer scaffold is rigid. Defining the threshold of detection at the dissociation constant of 1 mM, we identified 87 interactions between the selected foldamer fragments and the S100ome out of 220 possible interactions (Table 1, Fig. S4-14).
as §1, §2

For the next test, the target named is T2, S100A15 (Homo sapiens, UniProt Q86SG5).
T2 sequence (Q86SG5 1-101): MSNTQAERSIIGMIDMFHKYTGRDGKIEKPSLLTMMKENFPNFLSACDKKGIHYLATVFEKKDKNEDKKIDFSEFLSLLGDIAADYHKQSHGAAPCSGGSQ
Briefly: direct fluorescence polarization (FP), S100A15. To be noted: S100A15, 50 nM labeled foldamer, 20 mM HEPES pH 7.5, 150 mM NaCl, 1 mM CaCl2, 0.5 mM TCEP, 0.01% Tween20, quadratic fit, mean ± SEM, three technical repeats, threshold 1 mM. Here is the method: as §3, §1, §2

For another test, the target named is T3, S100A13 (Homo sapiens, UniProt Q99584).
T3 sequence (Q99584 1-98): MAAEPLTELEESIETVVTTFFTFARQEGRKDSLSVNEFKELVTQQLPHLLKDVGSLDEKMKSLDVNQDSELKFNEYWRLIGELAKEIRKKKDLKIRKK
Briefly: direct fluorescence polarization (FP), S100A13. Conditions: for Kd: S100A13, 50 nM labeled foldamer, 20 mM HEPES pH 7.5, 150 mM NaCl, 1 mM CaCl2, 0.5 mM TCEP, 0.01% Tween20, quadratic fit, mean ± SEM, three technical repeats, threshold 1 mM. The method, then: as §3, §1, §2

The next test concerns the target T4, S100A7 (Homo sapiens, UniProt P31151).
T4 sequence (P31151 1-101): T2 sequence (Q86SG5 1-101) with G22R, G25D, I52T, H53N, T57D, A84T
Put plainly: direct fluorescence polarization (FP), S100A7. To be noted: S100A7, 50 nM labeled foldamer, 20 mM HEPES pH 7.5, 150 mM NaCl, 1 mM CaCl2, 0.5 mM TCEP, 0.01% Tween20, quadratic fit, mean ± SEM, three technical repeats, threshold 1 mM. The method, then: as §3, §1, §2

Another test has as its target T5, S100A11 (Homo sapiens, UniProt P31949).
T5 sequence (P31949 1-105): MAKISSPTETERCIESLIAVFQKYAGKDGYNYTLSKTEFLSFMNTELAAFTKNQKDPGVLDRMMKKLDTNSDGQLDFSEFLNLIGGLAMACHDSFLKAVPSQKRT
Put plainly: direct fluorescence polarization (FP), S100A11. To be noted: S100A11, 50 nM labeled foldamer, 20 mM HEPES pH 7.5, 150 mM NaCl, 1 mM CaCl2, 0.5 mM TCEP, 0.01% Tween20, quadratic fit, mean ± SEM, three technical repeats, threshold 1 mM. The method, then: as §3, §1, §2

Residue numbers refer to the chain shown, from its start. Some results are limits rather than exact numbers.

Chain of S100A4 (P26447 whole entry): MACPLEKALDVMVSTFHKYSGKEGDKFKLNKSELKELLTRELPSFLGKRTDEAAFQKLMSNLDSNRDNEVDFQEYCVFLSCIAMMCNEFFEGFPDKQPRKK

In the case of `C[C@@H](O)[C@@H](CC(=O)N[C@H]1CCCC[C@@H]1C(=O)N[C@H]1CCCC[C@@H]1C(=O)N[C@H](CC(=O)N[C@H]1CCCC[C@@H]1C(=O)NCC(=O)N[C@@H](CCCCNC(=O)c1ccc2c(c1)C1(OC2=O)c2ccc(O)cc2Oc2cc(O)ccc21)C(N)=O)Cc1c[nH]c2ccccc12)NC(=O)[C@H]1CCCC[C@@H]1N` [fTW], the Kd – broadly, the free concentration of one partner at which half of the binding sites on the other are occupied at equilibrium, for simple one-to-one binding – at S100A4 is 180 ± 46 µM; at S100A12 it was above 1000 µM; on S100A15 it was above 1000 µM; on S100A13, above 1000 µM; on S100A7, above 1000 µM; at S100A11, 570 ± 68 µM.

Turning to `CSCC[C@@H](CC(=O)N[C@H]1CCCC[C@@H]1C(=O)NCC(=O)N[C@@H](CCCCNC(=O)c1ccc2c(c1)C1(OC2=O)c2ccc(O)cc2Oc2cc(O)ccc21)C(N)=O)NC(=O)[C@H]1CCCC[C@@H]1NC(=O)[C@H]1CCCC[C@@H]1NC(=O)C[C@@H](NC(=O)[C@H]1CCCC[C@@H]1N)[C@@H](C)O` [fTM], the Kd at S100A4, on S100A12, at S100A15, on S100A13, on S100A7 and on S100A11 was above 1000 µM throughout.

`CC[C@H](C)[C@@H](CC(=O)N[C@H]1CCCC[C@@H]1C(=O)N[C@H]1CCCC[C@@H]1C(=O)N[C@H](CC(=O)N[C@H]1CCCC[C@@H]1C(=O)NCC(=O)N[C@@H](CCCCNC(=O)c1ccc2c(c1)C1(OC2=O)c2ccc(O)cc2Oc2cc(O)ccc21)C(N)=O)Cc1ccccc1)NC(=O)[C@H]1CCCC[C@@H]1N` [fIF]: the Kd at S100A4 is 93 ± 2.4 µM; on S100A12, 590 ± 39 µM; on S100A15 it was above 1000 µM; on S100A13 it was above 1000 µM; at S100A7 it was above 1000 µM; on S100A11, 280 ± 15 µM.

Turning to `N=C(N)NCCC[C@@H](CC(=O)N[C@H]1CCCC[C@@H]1C(=O)N[C@H]1CCCC[C@@H]1C(=O)N[C@H](CC(=O)N[C@H]1CCCC[C@@H]1C(=O)NCC(=O)N[C@@H](CCCCNC(=O)c1ccc2c(c1)C1(OC2=O)c2ccc(O)cc2Oc2cc(O)ccc21)C(N)=O)Cc1ccccc1)NC(=O)[C@H]1CCCC[C@@H]1N` [fRF], the Kd is 460 ± 23 µM on S100A4; above 1000 µM at S100A12; above 1000 µM on S100A15; above 1000 µM at S100A13; above 1000 µM on S100A7; 998 ± 217 µM at S100A11.

As to `N=C(N)NCCC[C@@H](CC(=O)N[C@H]1CCCC[C@@H]1C(=O)NCC(=O)N[C@@H](CCCCNC(=O)c1ccc2c(c1)C1(OC2=O)c2ccc(O)cc2Oc2cc(O)ccc21)C(N)=O)NC(=O)[C@H]1CCCC[C@@H]1NC(=O)[C@H]1CCCC[C@@H]1NC(=O)C[C@H](CCCNC(=N)N)NC(=O)[C@H]1CCCC[C@@H]1N` [fRR], the Kd at S100A4, at S100A12, at S100A15, at S100A13, on S100A7 and at S100A11 was above 1000 µM throughout.

For `NC(=O)[C@H](CCCCNC(=O)c1ccc2c(c1)C1(OC2=O)c2ccc(O)cc2Oc2cc(O)ccc21)NC(=O)CNC(=O)[C@H]1CCCC[C@@H]1NC(=O)C[C@H](Cc1c[nH]c2ccccc12)NC(=O)[C@H]1CCCC[C@@H]1NC(=O)[C@H]1CCCC[C@@H]1NC(=O)C[C@H](Cc1c[nH]c2ccccc12)NC(=O)[C@H]1CCCC[C@@H]1N` [fWW], the Kd at S100A12, at S100A15, at S100A13, on S100A7 and at S100A11 was above 1000 µM throughout.

Take `CC(C)C[C@@H](CC(=O)N[C@H]1CCCC[C@@H]1C(=O)NCC(=O)N[C@@H](CCCCNC(=O)c1ccc2c(c1)C1(OC2=O)c2ccc(O)cc2Oc2cc(O)ccc21)C(N)=O)NC(=O)[C@H]1CCCC[C@@H]1NC(=O)[C@H]1CCCC[C@@H]1NC(=O)C[C@H](Cc1c[nH]c2ccccc12)NC(=O)[C@H]1CCCC[C@@H]1N` [fWL]: the Kd is 46 ± 1.6 µM on S100A4; 254 ± 113 µM on S100A12; 39 ± 2.4 µM on S100A15; above 1000 µM at S100A13; 23 ± 1.5 µM on S100A7; above 1000 µM on S100A11.

For `CC[C@H](C)[C@@H](CC(=O)N[C@H]1CCCC[C@@H]1C(=O)NCC(=O)N[C@@H](CCCCNC(=O)c1ccc2c(c1)C1(OC2=O)c2ccc(O)cc2Oc2cc(O)ccc21)C(N)=O)NC(=O)[C@H]1CCCC[C@@H]1NC(=O)[C@H]1CCCC[C@@H]1NC(=O)C[C@@H](NC(=O)[C@H]1CCCC[C@@H]1N)[C@@H](C)O` [fTI], the Kd on S100A4, at S100A12, at S100A15, at S100A13, on S100A7 and at S100A11 was above 1000 µM each time.

`CC(C)C[C@@H](CC(=O)N[C@H]1CCCC[C@@H]1C(=O)NCC(=O)N[C@@H](CCCCNC(=O)c1ccc2c(c1)C1(OC2=O)c2ccc(O)cc2Oc2cc(O)ccc21)C(N)=O)NC(=O)[C@H]1CCCC[C@@H]1NC(=O)[C@H]1CCCC[C@@H]1NC(=O)C[C@@H](NC(=O)[C@H]1CCCC[C@@H]1N)C(C)C` [fVL]: the dissociation constant Kd at S100A4 was 210 ± 8.7 µM; on S100A12 it was above 1000 µM; at S100A15 it was above 1000 µM; on S100A13 it was above 1000 µM; at S100A7, above 1000 µM; on S100A11 it was above 1000 µM.

As for `NC(=O)[C@H](CCCCNC(=O)c1ccc2c(c1)C1(OC2=O)c2ccc(O)cc2Oc2cc(O)ccc21)NC(=O)CNC(=O)[C@H]1CCCC[C@@H]1NC(=O)C[C@H](Cc1ccccc1)NC(=O)[C@H]1CCCC[C@@H]1NC(=O)[C@H]1CCCC[C@@H]1NC(=O)C[C@H](Cc1ccc(O)cc1)NC(=O)[C@H]1CCCC[C@@H]1N` [fYF], the dissociation constant (Kd) at S100A4 was 113 ± 5.2 µM; on S100A12, above 1000 µM; at S100A15 it was above 1000 µM; on S100A13, above 1000 µM; on S100A7, above 1000 µM; on S100A11, above 1000 µM. Moreover, the “increase of the polarization upon adding S100A13” value on S100A13 (Fig. 3A right panel) was “only a minor linear increase of the polarization”.

Values taken from paper PMC8991199, “Promiscuity mapping of the S100 protein family using a high-throughput holdup assay” (Scientific Reports, 2022).
